Test results published in patent US9695155B2, “Herbicidal substituted pyrimidinyloxy benzene compounds” (E. I. DU PONT DE NEMOURS AND COMPANY, priority 2013, dated 2017).

Columns and labels:
ducksalad = experiment: Test C flooded paddy test; assay type: in vivo, Heteranthera limosa; settings: Flood, scale 0 to 100 (0 no effect, 100 complete control), 13 to 15 days
In short: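 In-water treatment: compound dosed into 3 cm flood over soil, water level unchanged throughout. Controls run alongside; visual assessment at day 13–15.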

soybean = experiment: Test E preemergence; assay type: in vivo, Glycine max; settings: for Soybean plant response rating: scale 0 to 100 (0 no effect, 100 complete control); for Plant response rating, Soybean: scale 0 to 100, 0 no effect, 100 complete control
In short: (§1)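 Test chemicals formulated in a non-phytotoxic solvent mixture containing a surfactant were applied preemergence to seeds in silt loam soil or postemergence to plants at the 1- to 4-leaf stage in potting mix. After 14 to 21 days in a greenhouse, injury was visually rated against controls on a 0-100 scale (0 = no effect, 100 = complete control).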

velvetleaf = experiment: Test E preemergence; assay type: in vivo, Abutilon theophrasti; settings: for Velvetleaf plant response rating: scale 0 to 100 (0 no effect, 100 complete control); for Plant response rating, Velvetleaf: scale 0 to 100, 0 no effect, 100 complete control
In short: as §1

wild poinsettia = experiment: Test E preemergence; assay type: in vivo, Euphorbia heterophylla; settings: for Poinsettia, Wild plant response rating: scale 0 to 100 (0 no effect, 100 complete control); for Plant response rating, Poinsettia, Wild: scale 0 to 100, 0 no effect, 100 complete control
In short: as §1

palmer pigweed = experiment: Test E preemergence; assay type: in vivo, Amaranthus palmeri; settings: for Pigweed, Palmer plant response rating: scale 0 to 100 (0 no effect, 100 complete control); for Plant response rating, Pigweed, Palmer: scale 0 to 100, 0 no effect, 100 complete control
In short: as §1

waterhemp = experiment: Test E preemergence; assay type: in vivo, Amaranthus rudis; settings: for Waterhemp plant response rating: scale 0 to 100 (0 no effect, 100 complete control); for Plant response rating, Waterhemp: scale 0 to 100, 0 no effect, 100 complete control
In short: as §1

surinam grass = experiment: Test E preemergence; assay type: in vivo, Brachiaria decumbens; settings: for Surinam Grass plant response rating: scale 0 to 100 (0 no effect, 100 complete control); for Plant response rating, Surinam Grass: scale 0 to 100, 0 no effect, 100 complete control
In short: as §1

Brazilian crabgrass = experiment: Test E preemergence; assay type: in vivo, Digitaria horizontalis; settings: for Crabgrass, Brazil plant response rating: scale 0 to 100 (0 no effect, 100 complete control); for Plant response rating, Crabgrass, Brazil: scale 0 to 100, 0 no effect, 100 complete control
In short: as §1

fall panicum = experiment: Test E preemergence; assay type: in vivo, Panicum dichotomiflorum; settings: for Panicum, Fall plant response rating: scale 0 to 100 (0 no effect, 100 complete control); for Plant response rating, Panicum, Fall: scale 0 to 100, 0 no effect, 100 complete control
In short: as §1

green foxtail = experiment: Test E preemergence; assay type: in vivo, Setaria viridis; settings: for Foxtail, Green plant response rating: scale 0 to 100 (0 no effect, 100 complete control); for Plant response rating, Foxtail, Green: scale 0 to 100, 0 no effect, 100 complete control
In short: as §1

ragweed = experiment: Test E preemergence; assay type: in vivo, Ambrosia elatior; settings: for Ragweed plant response rating: scale 0 to 100 (0 no effect, 100 complete control); for Plant response rating, Ragweed: scale 0 to 100, 0 no effect, 100 complete control
In short: as §1

sandbur = experiment: Test E preemergence; assay type: in vivo, Cenchrus echinatus; settings: for Sandbur plant response rating: scale 0 to 100 (0 no effect, 100 complete control); for Plant response rating, Sandbur: scale 0 to 100, 0 no effect, 100 complete control
In short: as §1

nightshade = experiment: Test E preemergence; assay type: in vivo, Solanum ptycanthum; settings: for Nightshade plant response rating: scale 0 to 100 (0 no effect, 100 complete control); for Plant response rating, Nightshade: scale 0 to 100, 0 no effect, 100 complete control
In short: as §1

kochia = experiment: Test E preemergence; assay type: in vivo, Kochia scoparia; settings: for Kochia plant response rating: scale 0 to 100 (0 no effect, 100 complete control); for Plant response rating, Kochia: scale 0 to 100, 0 no effect, 100 complete control
In short: as §1

hairy beggarticks = experiment: Test E preemergence; assay type: in vivo, Bidens pilosa; settings: for Beggarticks plant response rating: scale 0 to 100 (0 no effect, 100 complete control); for Plant response rating, Beggarticks: scale 0 to 100, 0 no effect, 100 complete control
In short: as §1

N#Cc1cccc(Oc2ncc(Br)cn2)c1-n1cc(C(F)(F)F)cn1 [Compound 59, 3-[(5-bromo-2-pyrimidinyl)oxy]-2-[4-(trifluoromethyl)-1H-pyrazol-1-yl]benzonitrile]
0: Soybean plant response rating (soybean; 16 g ai/ha) | Soybean plant response rating (soybean; 31 g ai/ha) | Velvetleaf plant response rating (velvetleaf; 16 g ai/ha) | Poinsettia, Wild plant response rating (wild poinsettia; 16 g ai/ha) | Poinsettia, Wild plant response rating (wild poinsettia; 31 g ai/ha) | Surinam Grass plant response rating (surinam grass; 16 g ai/ha) | Surinam Grass plant response rating (surinam grass; 31 g ai/ha) | Foxtail, Green plant response rating (green foxtail; 16 g ai/ha) | Ragweed plant response rating (ragweed; 16 g ai/ha) | Ragweed plant response rating (ragweed; 31 g ai/ha) | Ragweed plant response rating (ragweed; 62 g ai/ha) | Sandbur plant response rating (sandbur; 16 g ai/ha) | Nightshade plant response rating (nightshade; 16 g ai/ha) | Beggarticks plant response rating (hairy beggarticks; 16 g ai/ha, preemergence) | Beggarticks plant response rating (hairy beggarticks; 31 g ai/ha, preemergence) | Plant response rating, Beggarticks (hairy beggarticks; Preemergence, 62 g ai/ha) | Plant response rating, Beggarticks (hairy beggarticks; preemergence, 125 g ai/ha)
15: Sandbur plant response rating (sandbur; 31 g ai/ha)
100: Plant response rating, Velvetleaf (velvetleaf; 125 g ai/ha) | Plant response rating, Velvetleaf (velvetleaf; 250 g ai/ha) | Plant response rating, Poinsettia, Wild (wild poinsettia; 250 g ai/ha) | Pigweed, Palmer plant response rating (palmer pigweed; 31 g ai/ha) | Pigweed, Palmer plant response rating (palmer pigweed; 62 g ai/ha) | Plant response rating, Pigweed, Palmer (palmer pigweed; 125 g ai/ha) | Plant response rating, Pigweed, Palmer (palmer pigweed; 250 g ai/ha) | Waterhemp plant response rating (waterhemp; 16 g ai/ha) | Waterhemp plant response rating (waterhemp; 31 g ai/ha) | Waterhemp plant response rating (waterhemp; 62 g ai/ha) | Plant response rating, Waterhemp (waterhemp; 125 g ai/ha) | Plant response rating, Waterhemp (waterhemp; 250 g ai/ha) | Crabgrass, Brazil plant response rating (Brazilian crabgrass; 31 g ai/ha) | Crabgrass, Brazil plant response rating (Brazilian crabgrass; 62 g ai/ha) | Plant response rating, Crabgrass, Brazil (Brazilian crabgrass; 125 g ai/ha) | Plant response rating, Crabgrass, Brazil (Brazilian crabgrass; 250 g ai/ha) | Plant response rating, Panicum, Fall (fall panicum; 125 g ai/ha) | Plant response rating, Panicum, Fall (fall panicum; 250 g ai/ha) | Foxtail, Green plant response rating (green foxtail; 62 g ai/ha) | Plant response rating, Foxtail, Green (green foxtail; 125 g ai/ha) | Plant response rating, Foxtail, Green (green foxtail; 250 g ai/ha) | Plant response rating, Nightshade (nightshade; 125 g ai/ha) | Plant response rating, Nightshade (nightshade; 250 g ai/ha) | Kochia plant response rating (kochia; 62 g ai/ha) | Plant response rating, Kochia (kochia; 125 g ai/ha) | Plant response rating, Kochia (kochia; 250 g ai/ha)
35: Pigweed, Palmer plant response rating (palmer pigweed; 16 g ai/ha)
95: Plant response rating, Ducksalad (ducksalad; 125 g ai/ha) | Plant response rating, Ducksalad (ducksalad; 250 g ai/ha) | Plant response rating, Soybean (soybean; 250 g ai/ha) | Plant response rating, Sandbur (sandbur; 250 g ai/ha)
90: Nightshade plant response rating (nightshade; 62 g ai/ha)
98: Panicum, Fall plant response rating (fall panicum; 62 g ai/ha)
20: Plant response rating, Poinsettia, Wild (wild poinsettia; 125 g ai/ha) | Plant response rating, Surinam Grass (surinam grass; 125 g ai/ha) | Kochia plant response rating (kochia; 16 g ai/ha)
60: Foxtail, Green plant response rating (green foxtail; 31 g ai/ha)
25: Velvetleaf plant response rating (velvetleaf; 31 g ai/ha) | Plant response rating, Beggarticks (hairy beggarticks; preemergence, 250 g ai/ha)
5: Surinam Grass plant response rating (surinam grass; 62 g ai/ha) | Plant response rating, Ragweed (ragweed; 125 g ai/ha)
65: Plant response rating, Surinam Grass (surinam grass; 250 g ai/ha)
50: Plant response rating, Ducksalad (ducksalad; 31 g ai/ha) | Plant response rating, Soybean (soybean; 125 g ai/ha) | Panicum, Fall plant response rating (fall panicum; 16 g ai/ha) | Plant response rating, Ragweed (ragweed; 250 g ai/ha) | Plant response rating, Sandbur (sandbur; 125 g ai/ha) | Nightshade plant response rating (nightshade; 31 g ai/ha)
80: Crabgrass, Brazil plant response rating (Brazilian crabgrass; 16 g ai/ha) | Kochia plant response rating (kochia; 31 g ai/ha)
30: Sandbur plant response rating (sandbur; 62 g ai/ha)
75: Plant response rating, Ducksalad (ducksalad; 62 g ai/ha) | Velvetleaf plant response rating (velvetleaf; 62 g ai/ha) | Panicum, Fall plant response rating (fall panicum; 31 g ai/ha)
10: Poinsettia, Wild plant response rating (wild poinsettia; 62 g ai/ha)

N#Cc1cnn(-c2c(CF)cccc2Oc2ncc(F)cn2)c1 [Compound 151]
100: Velvetleaf plant response rating (velvetleaf; 62 g ai/ha) | Plant response rating, Velvetleaf (velvetleaf; 125 g ai/ha) | Poinsettia, Wild plant response rating (wild poinsettia; 62 g ai/ha) | Plant response rating, Poinsettia, Wild (wild poinsettia; 125 g ai/ha) | Pigweed, Palmer plant response rating (palmer pigweed; 31 g ai/ha) | Pigweed, Palmer plant response rating (palmer pigweed; 62 g ai/ha) | Plant response rating, Pigweed, Palmer (palmer pigweed; 125 g ai/ha) | Plant response rating, Waterhemp (waterhemp; 125 g ai/ha) | Plant response rating, Surinam Grass (surinam grass; 125 g ai/ha) | Panicum, Fall plant response rating (fall panicum; 62 g ai/ha) | Plant response rating, Ragweed (ragweed; 125 g ai/ha) | Plant response rating, Kochia (kochia; 125 g ai/ha) | Plant response rating, Beggarticks (hairy beggarticks; preemergence, 125 g ai/ha)
60: Poinsettia, Wild plant response rating (wild poinsettia; 31 g ai/ha) | Panicum, Fall plant response rating (fall panicum; 31 g ai/ha)
35: Surinam Grass plant response rating (surinam grass; 62 g ai/ha) | Crabgrass, Brazil plant response rating (Brazilian crabgrass; 31 g ai/ha) | Plant response rating, Sandbur (sandbur; 125 g ai/ha)
0: Surinam Grass plant response rating (surinam grass; 31 g ai/ha) | Crabgrass, Brazil plant response rating (Brazilian crabgrass; 16 g ai/ha) | Sandbur plant response rating (sandbur; 31 g ai/ha) | Sandbur plant response rating (sandbur; 62 g ai/ha)
98: Waterhemp plant response rating (waterhemp; 62 g ai/ha) | Plant response rating, Panicum, Fall (fall panicum; 125 g ai/ha)
80: Kochia plant response rating (kochia; 31 g ai/ha)
30: Soybean plant response rating (soybean; 31 g ai/ha) | Nightshade plant response rating (nightshade; 31 g ai/ha)
95: Velvetleaf plant response rating (velvetleaf; 31 g ai/ha) | Ragweed plant response rating (ragweed; 62 g ai/ha) | Beggarticks plant response rating (hairy beggarticks; 62 g ai/ha, preemergence)
65: Beggarticks plant response rating (hairy beggarticks; 16 g ai/ha, preemergence) | Beggarticks plant response rating (hairy beggarticks; 31 g ai/ha, preemergence)
20: Foxtail, Green plant response rating (green foxtail; 16 g ai/ha) | Foxtail, Green plant response rating (green foxtail; 31 g ai/ha)
90: Ragweed plant response rating (ragweed; 31 g ai/ha) | Plant response rating, Nightshade (nightshade; 125 g ai/ha) | Kochia plant response rating (kochia; 62 g ai/ha)
75: Plant response rating, Soybean (soybean; 125 g ai/ha) | Waterhemp plant response rating (waterhemp; 31 g ai/ha) | Plant response rating, Crabgrass, Brazil (Brazilian crabgrass; 125 g ai/ha) | Plant response rating, Foxtail, Green (green foxtail; 125 g ai/ha) | Nightshade plant response rating (nightshade; 62 g ai/ha)
70: Crabgrass, Brazil plant response rating (Brazilian crabgrass; 62 g ai/ha) | Foxtail, Green plant response rating (green foxtail; 62 g ai/ha)
